Here are results for 15 compounds from ChEMBL document CHEMBL1141518, “Novel non-peptidic and small-sized BACE1 inhibitors” (Bioorg Med Chem Lett, 2008).

Active and inactive are the calls of the source. The calls are words filed in the database; no cut-off is given here.

Assay [1] has as its target T1, Beta-secretase 1 (Homo sapiens, UniProt P56817). The assay is described as follows: Inhibition of human recombinant BACE1 at 0.2 uM by FRET assay.
Assay [2] has as its target T1, Beta-secretase 1. Nature of the assay: Inhibition of human recombinant BACE1 at 2 uM by FRET assay.
Assay [3] addresses T1, Beta-secretase 1.
Description: (§1) Inhibition of human recombinant BACE1 by FRET assay
For assay [4], the target named is T1, Beta-secretase 1. This is another data set of the same source.
Description: as §1

T1 sequence (P56817 whole entry): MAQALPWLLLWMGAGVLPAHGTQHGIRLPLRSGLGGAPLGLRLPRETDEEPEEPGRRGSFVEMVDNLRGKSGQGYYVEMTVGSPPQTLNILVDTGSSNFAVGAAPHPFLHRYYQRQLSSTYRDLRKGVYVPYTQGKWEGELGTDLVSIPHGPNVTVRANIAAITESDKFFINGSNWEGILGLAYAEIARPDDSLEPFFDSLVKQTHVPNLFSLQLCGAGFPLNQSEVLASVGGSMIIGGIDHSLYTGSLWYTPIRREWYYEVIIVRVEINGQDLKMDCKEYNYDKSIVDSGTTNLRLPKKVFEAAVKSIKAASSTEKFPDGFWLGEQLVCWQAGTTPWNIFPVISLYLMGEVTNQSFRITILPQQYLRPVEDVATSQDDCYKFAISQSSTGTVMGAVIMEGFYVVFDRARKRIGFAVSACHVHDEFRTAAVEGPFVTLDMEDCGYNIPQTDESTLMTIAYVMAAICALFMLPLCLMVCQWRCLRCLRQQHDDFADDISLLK

Take `O=C(N[C@@H](Cc1ccccc1)[C@H](O)C(=O)Nc1cccc(-c2nn[nH]n2)c1)c1cc(=O)cc(C(=O)N2COC[C@@H]2c2ccccc2)o1`: the inhibition – broadly, the percentage by which the read-out fell short of the control – in assay [1] is 78%; in assay [2] it was 96%. The IC50 – broadly, the concentration needed to halve the response being measured – in assay [3] came to 50 nM.
Regarding `CCCN(CCC)C(=O)c1cccc(C(=O)N[C@@H](Cc2ccccc2)[C@@H](O)C(=O)Nc2cccc(C(=O)O)c2)n1`, the result in assay [4] was inactive.
As to `CC(C)(NC(=O)c1cccc(C(=O)N[C@@H](Cc2ccccc2)[C@H](O)C(=O)Nc2cccc(-c3nn[nH]n3)c2)n1)c1ccccc1`, the inhibition in assay [2] stood at 69%.
Still for that read-out and setting: the same measure for `CC(C)(NC(=O)c1cc(OS(C)(=O)=O)cc(C(=O)N[C@@H](Cc2ccccc2)[C@H](O)C(=O)Nc2cccc(-c3nn[nH]n3)c2)n1)c1ccccc1`: 84%.
The compound `O=C(N[C@@H](Cc1ccccc1)[C@H](O)C(=O)Nc1cccc(-c2nnn[nH]2)c1)c1cc(O)cc(C(=O)N2COC[C@@H]2c2ccccc2)n1` came in with an IC50 in assay [3] of 360 nM.
Still for that read-out and setting: under `CS(=O)(=O)Oc1cc(C(=O)N[C@@H](Cc2ccccc2)[C@H](O)C(=O)Nc2cccc(-c3nnn[nH]3)c2)nc(C(=O)N2COC[C@@H]2c2ccccc2)c1` stands 96 nM.
In the case of `CS(=O)(=O)Oc1cc(C(=O)N[C@@H](Cc2ccccc2)[C@H](O)C(=O)Nc2cccc(-c3nn[nH]n3)c2)nc(C(=O)N2COC[C@@H]2c2ccccc2)c1`, the values for the inhibition in assay [1] and in assay [2] were 73% and 96%, respectively.
In the case of `CC(C)(NC(=O)c1cc(=O)cc(C(=O)N[C@@H](Cc2ccccc2)[C@H](O)C(=O)Nc2cccc(-c3nn[nH]n3)c2)[nH]1)c1ccccc1`, in assay [2], the inhibition stood at 65%.
With `C[C@@H](NC(=O)c1cc(=O)cc(C(=O)N[C@@H](Cc2ccccc2)[C@H](O)C(=O)Nc2cccc(-c3nn[nH]n3)c2)o1)c1ccccc1`, the inhibition in assay [2] is 70%.
Still for that read-out and setting: under `C[C@@H](NC(=O)c1cc(=O)cc(C(=O)N[C@@H](Cc2ccccc2)[C@H](O)C(=O)Nc2cccc(-c3nn[nH]n3)c2)[nH]1)c1ccccc1` stands 51%.
Take `CC(C)(NC(=O)c1cc(=O)cc(C(=O)N[C@@H](Cc2ccccc2)[C@H](O)C(=O)Nc2cccc(-c3nn[nH]n3)c2)o1)c1ccccc1`: the inhibition in assay [2] is 81%.
Take `O=C(N[C@@H](Cc1ccccc1)[C@H](O)C(=O)Nc1cccc(-c2nn[nH]n2)c1)c1cccc(C(=O)N2COC[C@@H]2c2ccccc2)n1`: the inhibition in assay [1] is 63%; in assay [2], 93%.
On to `O=C(N[C@@H](Cc1ccccc1)[C@H](O)C(=O)Nc1cccc(-c2nnn[nH]2)c1)c1cccc(C(=O)N2COC[C@@H]2c2ccccc2)n1`, for which the IC50 in assay [3] worked out at 140 nM. This lies in the sub-micromolar range.
For the compound `C[C@@H](NC(=O)c1cccc(C(=O)N[C@@H](Cc2ccccc2)[C@H](O)C(=O)Nc2cccc(-c3nn[nH]n3)c2)n1)c1ccccc1`, the inhibition in assay [2] came out at 66%.
Turning to `O=C(N[C@@H](Cc1ccccc1)[C@H](O)C(=O)Nc1cccc(-c2nn[nH]n2)c1)c1cc(=O)cc(C(=O)N2COC[C@@H]2c2ccccc2)[nH]1`, the inhibition in assay [1] amounted to 36%; in assay [2], 83%.
